The text below walks through data of PubChem BioAssay (NCI).

Several values for one entry are separate records, joined by “and”; a condition that tells them apart may be missing. Identical values can stand only once.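 A five-concentration, 48-hour dose response in 96-well plates underlies each endpoint, interpolated linearly between surrounding concentrations. GI50 is the concentration that inhibits growth by half. The concentration for full growth arrest is given as TGI.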

Some test systems named below: SW-620 colon; U251 CNS; SF-295 CNS; RXF 393 renal; UACC-62 melanoma; KM20L2 colon; SR leukemia; NCI-H226 lung; SK-MEL-2 melanoma; LOX IMVI melanoma; COLO 205 colon; OVCAR-5 ovarian.
Common to all, as to assay: growth of human tumour cells (NCI), 48 h

Take `O=C(N/N=C/c1cc(Cl)cc(Cl)c1[O-])c1ccccc1O.O=C(N/N=C/c1cc(Cl)cc(Cl)c1[O-])c1ccccc1O.[Fe+2]`: the TGI worked out at 48.2 µM with SW-620 colon; 22.6 µM with U251 CNS; 33.9 µM in the test on SF-295 CNS; 28.8 µM with RXF 393 renal; 52.4 µM with UACC-62 melanoma; 27.9 µM with KM20L2 colon. Further, the TGI came out at 35.8 µM in the test on SR leukemia, 33.5 µM with NCI-H226 lung, 35.5 µM in the test with SK-MEL-2 melanoma and 86.5 µM in the test with LOX IMVI melanoma. The GI50 with KM20L2 colon was 14.1 µM; with SK-MEL-2 melanoma, 14.9 µM.

For the molecule `CCN(CC)CCCNC(=O)c1ccccc1Nc1c(Cl)cccc1Cl`, the TGI stood at 30.1 µM in the test on SW-620 colon; 23 µM in the test on RXF 393 renal; 25.3 µM in the test on UACC-62 melanoma; 28 µM in the test on COLO 205 colon; 5.58 µM with KM20L2 colon; 24.3 µM with OVCAR-5 ovarian. Besides, the TGI with SR leukemia worked out at 27.6 µM; in the test on NCI-H226 lung it was 28.6 µM; in the test with LOX IMVI melanoma it was 22.3 µM.

Consider `O=C(N/N=C/c1cc(Cl)cc(Cl)c1[O-])c1ccccc1O.O=C(N/N=C/c1cc(Cl)cc(Cl)c1[O-])c1ccccc1O.[Cu+2]`, for which the TGI came to 1.97 µM in the test on SW-620 colon; 1.34 µM in the test with U251 CNS; 1.26 µM with SF-295 CNS; 0.766 µM with RXF 393 renal; 0.819 µM in the test with UACC-62 melanoma; 0.348 µM with COLO 205 colon. In addition, the TGI in the test on KM20L2 colon amounted to 2.28 µM; with OVCAR-5 ovarian, 1.92 µM; in the test on SR leukemia, 0.511 µM; in the test with SK-MEL-2 melanoma it was 2.1 µM; with LOX IMVI melanoma, 1.46 µM. In addition, the figures for the GI50 in the test on COLO 205 colon, with KM20L2 colon and in the test with SK-MEL-2 melanoma were 0.186 µM, 0.909 µM and 0.746 µM, respectively.

Take `CC(=O)C(C(=O)C(=O)Nc1cc(Cl)c(Cl)cc1Cl)c1csc(N)n1` (stereo not given): the TGI with SW-620 colon, with U251 CNS, with SF-295 CNS, with RXF 393 renal, with UACC-62 melanoma and with COLO 205 colon was over 100 µM throughout. Moreover, the TGI with KM20L2 colon, in the test on OVCAR-5 ovarian, with SR leukemia, with NCI-H226 lung, with SK-MEL-2 melanoma and with LOX IMVI melanoma was over 100 µM in each case.

For the molecule `Cn1cc(-c2csc(-c3cn(CCCN4CCCCC4)c4ccc(Br)cc34)n2)c2cccnc21`, the GI50 is 1.82 µM with SW-620 colon; 1.64 µM in the test with RXF 393 renal; 1.78 µM with UACC-62 melanoma; 1.57 µM in the test with OVCAR-5 ovarian; 2.07 µM in the test on NCI-H226 lung; 1.94 µM with SK-MEL-2 melanoma. Also, the TGI is 3.26 µM with SW-620 colon; 3.19 µM in the test on RXF 393 renal; 3.4 µM in the test with UACC-62 melanoma; 3.01 µM in the test on OVCAR-5 ovarian; 4.84 µM in the test on NCI-H226 lung; 3.74 µM in the test on SK-MEL-2 melanoma.

For the molecule `CC(=O)OC1(C)CC(C)C(=O)C(C(O)CC2CC(=O)NC(=O)C2)C1` (stereo not given), the TGI was 0.129 µM with SW-620 colon; 21.3 µM in the test on U251 CNS; 0.03 µM with SF-295 CNS; 0.0899 µM with RXF 393 renal; 0.0113 µM in the test with UACC-62 melanoma; 0.18 µM and 0.0404 µM with COLO 205 colon. The TGI in the test with OVCAR-5 ovarian is 0.293 µM and 2.4 µM; in the test on NCI-H226 lung it was 0.275 µM; in the test on SK-MEL-2 melanoma, 0.806 µM and 0.438 µM; in the test with LOX IMVI melanoma, 0.296 µM and 0.103 µM. The GI50 with NCI-H226 lung was 0.0108 µM.

Take `O=[N+]([O-])c1cc(C(F)(F)F)cc2c1SC1=Nc3ccccc3CN12`: the TGI in the test with SW-620 colon, in the test with U251 CNS, with SF-295 CNS, with RXF 393 renal, with UACC-62 melanoma and in the test with COLO 205 colon was over 100 µM each time. Besides, the TGI in the test on KM20L2 colon, in the test on OVCAR-5 ovarian, in the test on NCI-H226 lung, with SK-MEL-2 melanoma and with LOX IMVI melanoma was over 100 µM throughout.

As for `CCCCCC1CC(C(C)=O)CN1c1ccc(F)cc1` (stereo not given), the TGI was over 100 µM in the test with SW-620 colon; over 100 µM with U251 CNS; 63.3 µM in the test on SF-295 CNS; over 100 µM with RXF 393 renal; over 100 µM in the test on COLO 205 colon; over 100 µM in the test with KM20L2 colon. Further, the TGI was over 100 µM in the test on OVCAR-5 ovarian, over 10 µM in the test on SR leukemia, over 100 µM in the test with SK-MEL-2 melanoma and over 100 µM with LOX IMVI melanoma.

Regarding `CCn1c(=O)c2c3ccc(O)cc3[nH]c2c2ccc(O)cc21`, the TGI in the test on SW-620 colon, in the test on U251 CNS, with SF-295 CNS, in the test on RXF 393 renal, in the test on UACC-62 melanoma and with COLO 205 colon was over 100 µM each time. Also, the TGI in the test with OVCAR-5 ovarian, with SR leukemia and with NCI-H226 lung was over 100 µM throughout.
